Results published in patent publication US6716857B2, “Tetrahydropyridine derivatives acting on muscarinic acetylcholine receptors” (Korea Institute of Science and Technology, priority 2001, dated 2004).
pIC50: −log10 of the molar value.

Key:
[1] = biological target: T1, human recombinant muscarinic receptor subtype 2 (M2) expressed in CHO cells (Homo sapiens, UniProt P08172); test: [3H]-N-methyl-scopolamine ([3H]-NMS) affinity screening test, M2; settings: inhibition of specific [3H]-NMS binding, compound at 1 μM
T1 construct: purchased Biosignal, Canada; host or cells: CHO cells
T1 sequence (P08172 1-466): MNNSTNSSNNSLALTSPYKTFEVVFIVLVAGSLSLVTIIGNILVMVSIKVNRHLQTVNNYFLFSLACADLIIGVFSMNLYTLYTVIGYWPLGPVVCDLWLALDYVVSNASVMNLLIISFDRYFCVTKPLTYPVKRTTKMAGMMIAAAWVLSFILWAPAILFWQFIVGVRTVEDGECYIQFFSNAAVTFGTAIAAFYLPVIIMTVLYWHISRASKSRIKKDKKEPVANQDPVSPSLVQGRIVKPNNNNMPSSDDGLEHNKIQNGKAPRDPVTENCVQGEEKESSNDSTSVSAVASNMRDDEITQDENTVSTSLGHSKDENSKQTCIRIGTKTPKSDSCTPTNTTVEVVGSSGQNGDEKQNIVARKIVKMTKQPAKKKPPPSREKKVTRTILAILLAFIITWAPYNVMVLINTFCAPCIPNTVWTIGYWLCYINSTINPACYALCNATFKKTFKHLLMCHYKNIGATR
Source text: (§1) [^3H]-N-methyl-scopolamine ([^3H]-NMS) Affinity Screening Test
(§2) In order to exclude the interaction between subtypes, human recombinant muscarinic receptor subtypes 1, 2 and 3 expressed in CHO cells (M1, M2 and M3, Biosignal, Canada) were purchased and used as receptor sources. [^3H]-N-methyl-scopolamine (NEN, NET-636) was used as radioisotope labeled ligands, and atropine was used for the measurement of the non-specific binding ability. About 10 kinds of experimental apparatuses including Liquid Scintillation Counter (MicroBeta 1450 plus), Inotech cell harvester (96-well) were used.
In order to determine the effect of each compound on M1 and M2 receptors, the compounds were reacted with the receptors using radioisotope labeled ligands. After the reaction, the excess unbound ligands were removed by filtering with a glass fiber filter. The amount of radioisotopes remaining on the washed filter plate was then measured to quantify the binding reaction between the receptors and the ligands and, from the result, the affinity of the drugs for the receptors was determined.
(§3) The freeze-stored receptors at −70° C. were suspended in test buffer solutions and then the screening test (BioRad protein) was carried out to determine the optimum concentration of the proteins. Thereafter, 50 μL of hot-ligands and 10 μL of test drugs were added to 96-well plate and 100 μL of 50 mM TRIS buffer (pH 7.2) containing 10 mM MgCl2 and 1 mM EDTA was added as a test buffer. The final volume of the reaction was 0.25 mL. The reaction was initiated by adding 100 μL of the diluted receptor suspension, and continued for 60 minutes on a shaking incubator at 27° C. This test was repeated four times. After 60 minutes, the reaction was terminated by adding cold TRIS buffer (0.5 mL, pH 7.4). The excess unbound radioisotopes were removed from the reaction mixture using Inotech cell harvester system. After washing the mixture, the radioactivity detected by the filter mat was measured using Liquid Scintillation Counter. As primary stage of the efficacy screening, the drugs at two concentrations (1 μM, 10 μM) were screened for their affinity for the receptors. As secondary stage, drugs showing remarkable efficacies were determined at the lower concentrations. Finally, IC50 values were calculated at the gradient of 10 concentrations. The test drugs were diluted sequentially for the required concentrations by dissolving them in dimethylsulfoxide (DMSO). […] From the saturation affinity screening test, Kd and Bmax values, and IC50 or Ki values of each test drugs were calculated by observing the non-linear regression using prism (Graphpad software Inc.,USA).
(§4) In the equilibrium affinity screening test, [^3H]-N-methyl-scopolamines at the gradient of 12 concentrations were used for the measurement of the binding ability (IC50). In the competition screening test, 1 nM of [^3H]-N-methyl-scopolamines, and the reference drugs at the gradient of 10 concentrations were used for the measurement. 4-DAMP-methyliodide, Pirenzepine, p-F-hexahydro-sila-defenidol, Methoctramine, and the like were used as reference drugs.

[2] = system: Oxo-M binding receptor of muscarinic receptors (rat forebrain synapse membranes); test: [3H]-oxotremorine-M ([3H]-Oxo-M) affinity screening test; settings: ratio IC50 NMS / IC50 Oxo-M; >180 full agonist, 14 to 130 partial agonist, 0.2 to 1.9 antagonist
Source text: (§5) [^3H]-oxotremorine-M ([^3H]-Oxo-M) Affinity Screening Test
(§6) The experimental principle was the same as [^3H]-NMS affinity screening test. […] The functions of the compounds may be determined by carrying out both of [^3H]-NMS and [^3H]-Oxo-M (oxotremorine) affinity screening tests to measure their respective IC50 values and calculating ratios (NMS/Oxo-M) of the measured IC50 values.
(§7) Synapse membranes for binding assay of Oxo-M binding receptor of muscarinic receptors were directly prepared and used in the laboratory as follows: male Sparague-Dawley rats (supplied from Laboratory Animal Center of Korea Research Institute of Chemical Technology, 250 to 300 g) were sacrificed by decapitation. The brain tissues were immediately removed from and the forebrain was obtained, which was sectioned into small pieces. After adding 10-fold amount of ice-cooled solution of sucrose (0.32M), the sectioned forebrain was homogenized using Teflon-glass homogenizer (Contorque, Eberbach) at 10 strokes and 500 rpm, centrifuged at 1000 g for 15 minutes, and then the supernatant was again centrifuged at 17000 g for 20 minutes. The pellet was stored at −20° C. and then used.
(§8) Before the pellet was used at this assay, it was suspended in 10 mL of 20 mM HEPES buffer (pH 7.4), again centrifuged at 17000 g for 15 minutes and then washed. Finally, the washed membrane was diluted in ice-cooled 20 mM HEPES buffer (pH 7.4) to the final concentration of 1:100 (wet wt/v) and used at this assay. All test samples were tested four times, and 20 mM HEPES buffer (pH 7.4) was used as a buffer for screening test. The final volume of reaction was 1 mL, and 24-well plate (costar 24-well) was used. 50 μL of hot-ligand (Oxo-M 5 nM) and 10 μL of test drugs were included therein, and the reaction was initiated by adding 750 μL of synapse membrane and continued at 30° C. for 40 minutes on the shaking incubator. 2 μM atropine was used for non-specific binding in all tests. After completion of the reaction, the receptor binding ligands and non-binding ligands were separated by using Inotech cell harvester (24-channels, Inotech, Switzerland) and filtering under reduced pressure (10×ice-cooled saline) with Wallac GF/C filter (pre-immersed in 0.05% polyethylene imine). The radioactivity of the receptor binding ligands was detected by Liquid Scintillation Counter (MicroBeta Plus, Wallac, Finland).
(§9) The test drugs were diluted sequentially for the required concentrations by dissolving them in dimethylsulfoxide (DMSO) and used in the test. […] From the saturated affinity screening test, Kd and Bmax values, and IC50 or Ki values of respective test drugs were calculated by observing the non-linear regression using prism (Graphpad software Inc., USA). The saturated affinity screening test was carried out in the range of 0.1 to 10 nM of [^3H]-Oxo-M ligand as described above.

[3] = system: T2, Oxo-M binding receptor of muscarinic receptors (rat forebrain synapse membranes); test: as above; settings: inhibition of specific [3H]-Oxo-M binding, under head M1; for M1 Oxo-M (1 μM) inhibition: compound at 1 μM
T2 construct: under head M1
Source text: as §5, §6, §7, §8, §9

[4] = biological target: T3, human recombinant muscarinic receptor subtype 1 (M1) expressed in CHO cells (Homo sapiens, UniProt P11229); test: [3H]-N-methyl-scopolamine ([3H]-NMS) affinity screening test, M1; settings: inhibition of specific [3H]-NMS binding
T3 construct: purchased Biosignal, Canada; host or cells: CHO cells
T3 sequence (P11229 1-460): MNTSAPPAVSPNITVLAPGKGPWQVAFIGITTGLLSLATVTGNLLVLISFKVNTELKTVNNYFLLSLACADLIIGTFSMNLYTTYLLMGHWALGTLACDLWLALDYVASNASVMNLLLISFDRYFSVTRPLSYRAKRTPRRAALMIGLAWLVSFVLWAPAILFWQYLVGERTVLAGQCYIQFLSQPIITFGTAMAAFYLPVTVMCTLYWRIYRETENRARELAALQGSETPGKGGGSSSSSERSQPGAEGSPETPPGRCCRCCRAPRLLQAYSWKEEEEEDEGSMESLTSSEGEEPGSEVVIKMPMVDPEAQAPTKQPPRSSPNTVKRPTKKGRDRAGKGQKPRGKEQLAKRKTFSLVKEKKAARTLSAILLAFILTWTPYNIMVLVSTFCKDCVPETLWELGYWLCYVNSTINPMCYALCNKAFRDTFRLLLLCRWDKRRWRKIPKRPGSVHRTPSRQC
Source text: as §1, §2
In order to determine the effect of each compound on M1 and M2 receptors, the compounds were reacted with the receptors using radioisotope labeled ligands. After the reaction, the excess unbound ligands were removed by filtering with a glass fiber filter.
as §3, with “As secondary stage, drugs showing remarkable efficacies were determined at the lower concentrations.” left out
as §4

Structure (SMILES): CN1CCC=C(C(CN2CCCC2=O)=NOCc2ccccc2)C1 (mixture of isomers) [Example 29, 1-[2-benzyloxyimino-2-(1-methyl-1,2,5,6-tetrahydro-pyridin-3-yl)-ethyl]-pyrrolidin-2-one]
- inhibition at 1 µM [1]: 0%
- NMS/Oxo-M (ratio of IC50 values) [2]: 486
- M1 Oxo-M (1 μM) inhibition [3]: 78.4%
- pIC50 [3]: 6.79
- pIC50 [4]: 4.10
- inhibition at 10 µM ([4]; compound at 10 μM): 0%

Structure (SMILES): CN1CCC=C(C#CCN2CCCC2=O)C1 [Example 30, 1-[3-(1-methyl-1,2,5,6-tetrahydro-pyridin-3-yl)-propyn-2-yl]-pyrrolidin-2-one]
- inhibition at 1 µM [1]: 42.3%
- NMS/Oxo-M (ratio of IC50 values) [2]: 774
- M1 Oxo-M (1 μM) inhibition [3]: 96.6%
- pIC50 [3]: 7.85
- pIC50 [4]: 4.97
- inhibition at 10 µM ([4]; compound at 10 μM): 58.5%

Structure (SMILES): CN1CCC=C(C(CCN2CCCC2=O)=NO)C1 [Example 16, 1-[3-hydroxyimino-3-(1-methyl-1,2,5,6-tetrahydro-pyridin-3-yl)-propyl]-pyrrolidin-2-one]
- inhibition at 1 µM [1]: 22.6%
- NMS/Oxo-M (ratio of IC50 values) [2]: 236
- M1 Oxo-M (1 μM) inhibition [3]: 92.4%
- pIC50 [3]: 7.13
- pIC50 [4]: 4.76
- inhibition at 10 µM ([4]; compound at 10 μM): 39.5%

Structure (SMILES): COC(=O)C1=CCCN(C)C1 [Arecoline, reference compound]
- M1 Oxo-M (1 μM) inhibition [3]: 85.5%
- pIC50 [3]: 6.85

Structure (SMILES): CN1CCC=C(C(CN2CCCC2=O)=NO)C1 [Example 26, 1-[2-hydroxyimino-2-(1-methyl-1,2,5,6-tetrahydro-pyridin-3-yl)-ethyl]-pyrrolidin-2-one]
- inhibition at 1 µM [1]: 94.1%
- NMS/Oxo-M (ratio of IC50 values) [2]: 4078
- M1 Oxo-M (1 μM) inhibition [3]: 96.9%
- pIC50 [3]: 9.05
- pIC50 [4]: 5.44
- inhibition at 10 µM ([4]; compound at 10 μM): 87.6%

Structure (SMILES): C#CCON=C(CCN1CCCC1=O)C1=CCCN(C)C1 [Example 18, 1-[3-(1-methyl-1,2,5,6-tetrahydro-pyridin-3-yl)-3-propyn-2-yloxyimino-propyl]-pyrrolidin-2-one]
- inhibition at 1 µM [1]: 26.8%
- NMS/Oxo-M (ratio of IC50 values) [2]: 35
- M1 Oxo-M (1 μM) inhibition [3]: 75.3%
- pIC50 [3]: 6.42
- pIC50 [4]: 4.87
- inhibition at 10 µM ([4]; compound at 10 μM): 42.9%

Structure (SMILES): C#CCON=C(CN1CCCC1=O)c1cccnc1 [Example 24, 1-(2-propyn-2-yloxyimino-2-pyridin-3-yl-ethyl)-pyrrolidin-2-one]
- M2 NMS (1 μM) inhibition [1]: 0%
- NMS/Oxo-M (ratio of IC50 values) [2]: 306
- M1 Oxo-M (1 μM) inhibition [3]: 58.0%
- pIC50 [3]: 6.49
- M1 NMS (10 μM) inhibition ([4]; compound at 10 μM): 0%
